| Compound | melting point [°C] |
| --- | --- |
| COc1cc(Br)c(O)c(/C=C/C(=O)/C=C/c2cc(OC)cc(Br)c2O)c1 | 155 to 157 |
| Cc1c(C(=O)c2cccc(Cl)c2Cl)c2cccc(Br)c2n1CCCCl | 139 |
| O=C(Nc1ccc(-n2nc(C(F)(F)F)cc2C(F)(F)F)cc1)c1cccc(F)c1 | 148 to 151 |
| OCCCN1CCC(c2noc3cc(F)ccc23)CC1 | 140 to 142 |
| O=C(CCN1CCOCC1)Nc1cc(-c2nnc(CCc3cccc(F)c3)o2)ccn1 | 149 to 150 |
| CC(=O)N1CCc2oc3ncccc3c(=O)c2C1 | 182 to 184 |
| O=C(NCCCN1CCN(c2ccc(F)cc2OCC(F)(F)F)CC1)c1conc1-c1ccc(F)cc1 | 122 to 123 |
| Cc1c(CC[Si](Cl)(Cl)Cl)c(CC[Si](Cl)(Cl)Cl)c(C)c(CC[Si](Cl)(Cl)Cl)c1CC[Si](Cl)(Cl)Cl | 220 to 224 |
| NCCOc1cc(Cl)cc([N+](=O)[O-])c1N | 156 to 157 |
| CC(C)(S)C(N)P(C)(=O)O (configuration not stated) | 221 |
| CN(C)CC(O)C(c1ccccc1)c1ccc(F)cc1 (configuration not stated) | 55 to 57 |
| CCCc1n[nH]c(CCC)n1 | 69 to 70 |
| CNC(=O)/C(=N/OC)c1ccccc1COc1cccc(SC)n1 | 130 to 132 |
| CC1(C)Cc2cc(S(N)(=O)=O)ccc2O1 | 157 to 160 |
| COc1cc2c(cc1O)CCN(C(=O)c1ccc(OC)c(OC)c1)C2 | 132 to 133 |
| CC(c1ccc(C=Cc2ccccc2)s1)N(O)C(N)=O (configuration not stated) | 160 to 163 |
| NC(=S)NN=C(CCC(=O)N1CCCCC1)c1ccccc1 | 181 to 183 |
| CC(C)(C)OC(=O)NCCc1cccc(O)c1 | 79 to 82 |
| O=C1Nc2ccccc2Sc2nccn21 | 250 to 252 |
| FC(F)(F)c1ccc2c(C3CCNCC3)c[nH]c2c1 | 210 to 214 |
| CC(C)(Br)C(=O)NOCc1ccccc1 | 88.6 to 91.1 |
| CCCCCC(O)CNCCCCCCNCC(O)CCCCC (configuration not stated) | 131 to 134 |

| Compound | melting point [°C] |
| --- | --- |
| CC(C)N1C(=O)NC(c2ccc3c(c2)CCC3)c2cc3c(cc21)OCO3 (configuration not stated) | 146 to 148 |
| C=CS(=O)(=O)N1CCC(N2N=C(c3ccc(OC)c(OC)c3)[C@H]3CC=CC[C@H]3C2=O)CC1 | 89 to 90 |
| CCCCNc1c(C(=O)OCC)cnc2onc(C)c12 | 60 |
| CC(c1ccccc1)C(C)([N+](=O)[O-])[N+](=O)[O-] (configuration not stated) | 76 to 78 |
| O=c1cc(C(F)(F)F)ccn1-c1c(Cl)cc(CF)cc1Cl | 121 to 122 |
| CNS(=O)(=O)c1ccc(Cl)c(C)c1Cl | 118 |
| O=C(CN1CCC(Cc2ccc(F)cc2)CC1)Nc1ccc2[nH]ncc2c1 | 149 to 152 |
| NC(=O)c1cnn2c(=O)n(CCCl)nnc12 | 193 to 194 |
| COc1ccc(CNc2nnc(N3CCC(O)C3)c3ccc(Cl)cc23)cc1Cl (configuration not stated) | 191 to 193 |
| Cc1ccc(C2(CNC(=O)Nc3c(C(C)C)cccc3C(C)C)CCC2)cc1 | 166 to 168 |
| COC(=O)C(Cl)=Cc1cc(-n2ncc(C(F)(F)F)c(C)c2=O)ccc1Cl | 80 to 81 |
| O=C1Cc2cccc(-c3ccccc3)c2N1 | 167 to 169 |
| O=c1oc2cc(O)c(O)cc2c(O)c1C1c2ccccc2Oc2c1c(=O)oc1cc(O)cc(O)c21 (configuration not stated) | > 300 |
| CN1CCC(c2nn(C(=O)c3ccc(F)cc3)c3ccccc23)CC1 | 132 to 133 |
| COc1ccccc1OC(=O)C(=O)Oc1ccccc1OC | 123 to 126 |
| CSC(=N)NS(=O)(=O)CCl | 60 to 62 |
| CCOC(=O)Cn1cnc2c(N3CCOCC3)nc(NC(=O)C3CCCCC3)nc21 | 142 to 147 |
| Nc1nc(-c2cc(Cl)nc(Cl)c2)cs1 | 239 to 247 |
| COC(=O)C1(S(C)(=O)=O)C(C)NC(C)=CC1c1ccccc1S(=O)(=O)NN(C)C (configuration not stated) | 218 to 221 |
| COc1ccc(-c2cncc(OC3SCC(O)C(O)C3O)c2)c(Cl)c1 (configuration not stated) | 218 |
| CC(C)(C)OC(=O)N(C(=O)OC(C)(C)C)c1cc(-c2ccc([N+](=O)[O-])cc2)n(C(=O)OC(C)(C)C)n1 | 154 to 155 |
| Cc1cc2oc(=O)c3c(c2cc1N)CCN(CCN1CC2CCC(CC2)C1)C3 | 142 to 143 |

| Compound | melting point [°C] |
| --- | --- |
| CCOCc1nc2c(N)nc3cc(-c4cccc(CO)c4)cnc3c2n1CC(C)(C)NS(C)(=O)=O | 173 to 174 |
| CON=C(C(=O)OC)c1cc(C)c(C)cc1COc1ccccc1C | 82 to 84 |
| CCCCCN1N=C(c2ccc3c(c2)N(S(C)(=O)=O)CCO3)CCC1=O | 138 to 139 |
| Cc1cc(F)c(Nc2ncnc3cc(NC(=O)CCN4CCOCC4)ccc23)cc1O | 228 to 233 |
| CCc1ccc2c(c1)C(=O)CCCC(=O)N2 | 138 to 140 |
| CCC(C)CNC(=O)c1cc(NC)cc(C(=O)NCC(C)CC)c1 (configuration not stated) | 160 to 161 |
| CC#CCOc1ccc(S(=O)(=O)C2(C(=O)O)CCOCC2)cc1 | 197 |
| CC12CCC(OC(=O)c3ccc(N)cc3)CC1=CCC1C2CCC2(C)C(=NO)CCC12 (configuration not stated) | 165 to 168 |
| CCCn1nc2c(N)nc3ccccc3c2c1CC1CCOCC1 | 218 to 220 |
| Cc1nc(-c2cn(-c3cc(-c4ccc(C(F)(F)F)cc4)cc(C(F)(F)F)n3)cn2)sc1S(=O)(=O)NC(C)(C)C | 260 |
| CC(=O)OCC1OC(OC(C)=O)C(O)C(OC(C)=O)C1OC(C)=O (configuration not stated) | 163 to 165 |
| CC(=O)Nc1cc(Cl)cc(Cl)c1 | 182 |
| Cn1c(C(F)(F)F)cc(=O)n(-c2cc(OCc3ccc(Cl)cc3Cl)c(Cl)cc2F)c1=O | 112 to 120 |
| O=c1[nH][nH]c(=O)c(-c2c(F)cc(F)cc2F)c1-c1ccc(Br)cc1 | 134 to 137 |
| Cc1cc(C2=NOC(c3cc(Cl)cc(Cl)c3)(C(F)(F)F)C2)ccc1C(=O)NC1CON(CCO)C1=O (configuration not stated) | 78 |
| CCC(Oc1ccccc1C(C)=O)C(=O)OC1CC(O)C=C2C=CC(C)C(CCC3CC(O)CC(=O)O3)C21 (mixture of isomers) | 148 to 150 |
| CCn1cnc(Cl)c2nc(C3CC3)nc1-2 | 140 to 145 |
| C(#Cc1cnc2ccccc2c1)CCN1CCN(c2ccccn2)CC1 | 76.5 to 77 |
| Cc1c(C)c(N2Cc3ccccc3C2)c(C)c2c1OC(C)(C)C2 | 161 to 163 |
| CCOC(=O)C(=O)N1CCCc2c1ccc1[nH]c(=O)c(=O)[nH]c21 | > 285 |
| CCc1nc2sc(S(N)(=O)=O)cc2c(=O)n1-c1ccccc1Cl | 253 |

More lines, now with the values ahead:

| melting point [°C] | Compound |
| --- | --- |
| 118 to 120 | CC(C#N)c1ccc2oc(-c3ccccc3)nc2c1 (configuration not stated) |
| 236 | O=C(Nc1ccc2ccc(Cl)nc2n1)c1ccc(C(F)(F)F)cc1 |
| 167 to 168 | NC1=C2C=NN=C2N(c2ccccc2)CN1Cc1ccccc1 |
| 117 to 123 | CCCn1cc(Cc2ccc(C(=O)NS(=O)(=O)c3ccccc3C)cc2OC)c2cc(CCNC(=O)N3CCOCC3)ccc21 |
| 133 to 136 | COc1ccc(OC)c(NC(=O)C2OC(=O)c3ccccc3C2c2ccc(F)cc2)c1 (configuration not stated) |
| 126 | CS(=O)(=O)c1ccc(-c2nn(Cc3ccccc3)c(C(F)(F)F)c2-c2ccc(F)cc2)cc1 |
| 160 to 163 | O=C(O)CNC(=O)C(CSC(=O)c1ccccc1)SC(=O)c1ccccc1 (configuration not stated) |
| 209 to 210 | CC(C)=C[C@@H](OC(=O)C=C(C)N[C@@H](C)c1cccc2ccccc12)C(Cl)(Cl)Cl |
| 199 | COc1ccc2ccc(Nc3cc(-c4ccc(C(F)(F)F)cc4)ncn3)cc2n1 |
| 204 to 206 | CCN1CCN(c2nc(-c3ccc(O)cc3)cc3ccccc23)CC1 |
| 91 | Cc1ccc(S(=O)(=O)N2[C@H](CCCc3nc(C)no3)CC[C@@H]2c2ccc(F)cc2)cc1 (racemic) |
| 291 to 294 | O=C(c1ccc(-c2ccccc2)cc1)n1c2cc(O)c(O)cc2c2ccc(O)c(O)c21 |
| 182 to 192 | O=C(NC(c1ccccc1)c1cc2ccncc2[nH]1)c1ccncc1 (configuration not stated) |
| 274 to 276 | COc1cc(Nc2c(C#N)cnc3cc(-c4ccccc4)sc23)c(Cl)cc1Cl |
| 102 to 107 | COC(=O)CCc1ccc(NC(=O)C(COC2CCCCO2)NS(=O)(=O)c2ccc(Cl)cc2)cc1 (racemic) |
| 96 to 98 | c1ccc(C(OC2CCN(CCCCCNc3ccc4ncnn4n3)CC2)c2ccccc2)cc1 |

| melting point [°C] | Compound |
| --- | --- |
| 212 to 214 | COC(=O)c1oc2ccc(Cl)cc2c1-c1ccccc1C |
| 146 | COc1ccc(CN(C)CCOc2ccc(NC(=O)c3cccc4c(=O)c5ccccc5[nH]c34)cc2)cc1 |
| 148 | c1ccc(-c2cc(-c3c[nH]nc3-c3ccccn3)ccn2)cc1 |
| 119 to 121 | COC(=O)C1=Cc2cc(-c3ccc(OCCOC(C)C)cc3)ccc2N(S(C)(=O)=O)CC1 |
| 180 | CN(C(=O)CN(C(=O)CNC(=O)Nc1cccc(O)c1)c1ccccc1)c1ccccc1 |
| 244 to 245 | Cc1c(-c2ccc(Cl)cc2)nc2ccc(C(=O)NC(Cc3ccc(OCc4ccccc4)cc3)C(=O)O)cn12 (configuration not stated) |
| 33 to 35 | O=[N+]([O-])c1ccccc1Oc1ccc(Cl)cc1 |
| 160 | O=C(Nc1ccc2[nH]c(CNCC3CCOCC3)cc2c1)c1ccc(OCC2CC2)cc1 |
| 182 to 183 | Cc1noc(NS(=O)(=O)c2ccccc2-c2ccc(Cn3c(=O)oc4ccccc43)cc2)c1C |
| 168 to 169 | CCCn1nc2c(N)nc3ccccc3c2c1CC(C)(C)NC(=O)c1ccc(F)cc1 |
| 204 to 206 | COc1cn(-c2ccc(N3CC(F)(F)C3)cc2F)nc(-c2ccnn2-c2ccccc2)c1=O |
| 218 | CCOC(=O)COc1ccc(NC(=O)c2cnc(NC(=N)N)s2)cc1 |
| 128 to 130 | Cc1c(O)cccc1C(=O)N[C@@H](Cc1ccccc1)[C@H](O)C(=O)N1CSC(C)(C)[C@H]1C(=O)N[C@@H]1CCc2ccccc21 |
| 164 to 167 | O=C(NNS(=O)(=O)c1ccccc1)c1cc2ccccc2o1 |
| 242 to 244 | O=C1c2cccc(Sc3ccccc3)c2C(=O)c2cccc(Nc3ccc([N+](=O)[O-])cc3)c21 |
| 137 to 139 | COC(=O)CN(c1cc(OCc2ccccc2)cc2ccc(OC)cc12)S(N)(=O)=O |
